{
  "source": "patent US8168665B2",
  "about": "“Substituted 2-phenyl-benzimidazoles and their use as pharmaceuticals” (Sanofi-Aventis, priority 2006, dated 2012)",
  "system": "eNOS promoter",
  "assay": "Activation of eNOS transcription (eNOS promoter-luciferase reporter, human endothelial cell line)",
  "type": "cell-based",
  "details": "human endothelial cell line stably transfected with eNOS promoter-luciferase construct, 18 h incubation, determined graphically; read-out: EC50 values of transcription induction ratios (TIR)",
  "procedure": "A) Activation of eNOS Transcription\nActivation of eNOS transcription was measured as described in detail by Li et al., “Activation of protein kinase C alpha and/or epsilon enhances transcription of the human endothelial nitric oxide synthase gene”, Mol. Pharmacol. 53 (1998) 630. Briefly, a 3.5 kB long fragment 5′ of the starting codon of the eNOS gene was cloned, sequenced and cloned in firefly luciferase expression plasmids to monitor activation of the eNOS promoter by reporter gene activity. A human endothelial cell line stable transfected and expressing this promoter-reporter construct was used for compound testing. Cells were incubated for 18 h with the compounds.\nAll compounds were dissolved in sterile dimethyl sulfoxide (DMSO). A final concentration of 0.5% DMSO in complete medium was allowed. Induction of reporter gene expression in these cells was measured using a standard luciferase assay system (Promega, Cat. No. E150) according to the manufacturer's instructions. Luciferase induction in cells incubated with compounds were compared to those incubated with solvent alone. The ratio of both activities (transcription induction ratio, TIR) was plotted as a function of compound concentration. Typically, TIR values started at low concentrations at a ratio of 1, indicating no compound effect, and extended up to a maximum TIR value TIR(max) which indicates the increase of the eNOS transcription. EC50 values of transcription induction ratios as a function of compound concentration were determined graphically.",
  "data": [
    {"molecule": "CCOC(=O)O/N=C(\\N)c1ccc2[nH]c(-c3ccc(F)cc3)nc2c1", "note": "[Example 5, 2-(4-Fluoro-phenyl)-N-ethoxycarbonyl-oxy-1H-benzoimidazole-5-carboxamidine]", "values": [
      {"measurement": "EC50", "value": "< 500", "unit": "nM"}
    ]},
    {"molecule": "Cc1ccc(-c2nc3cc(/C(N)=N/O)ccc3[nH]2)cc1", "note": "[Example 4, N-Hydroxy-2-p-tolyl-1H-benzoimidazole-5-carboxamidine]", "values": [
      {"measurement": "EC50", "value": "< 500", "unit": "nM"}
    ]},
    {"molecule": "CC(C)OC(=O)O/N=C(\\N)c1ccc2[nH]c(-c3ccc(F)cc3)nc2c1", "note": "[Example 7, 2-(4-Fluoro-phenyl)-N-isopropyloxycarbonyl-oxy-1H-benzoimidazole-5-carboxamidine]", "values": [
      {"measurement": "EC50", "value": "< 500", "unit": "nM"}
    ]},
    {"molecule": "COC(=O)O/N=C(\\N)c1ccc2[nH]c(-c3ccc(F)cc3)nc2c1", "note": "[Example 6, 2-(4-Fluoro-phenyl)-N-methoxycarbonyl-oxy-1H-benzoimidazole-5-carboxamidine]", "values": [
      {"measurement": "EC50", "value": "< 500", "unit": "nM"}
    ]}
  ]
}
